Broadly, the LD50 is the dose expected to kill half of the subjects tested.

The source of these data is US4647587A, “Method for treatment of antidiuresis employing serine derivatives” (Sumitomo Pharmaceuticals Company, Limited, priority 1984, dated 1987).

The conditions of series [1]: clinical tests; U.S. Pat. No. 4,330,558; cited from earlier work.
Series [2] can be described thus: Acute toxicity by oral dosage to dog. The note with it: in vivo.
A short description of series [3]: Acute toxicity by oral dosage to rat. Conditions: in vivo.
Series [4] is described as follows: Diuretic action (general statement). Format: in vivo. Conditions: for diuretic action (in words): in vivo.
For series [5] the following is noted: clinical tests; U.S. Pat. No. 4,497,826; cited from earlier work.
A short description of series [6]: Acute toxicity by oral dosage to mouse. The note with it: in vivo.
The conditions of series [7]: animals; U.S. Pat. No. 3,920,728; cited from earlier work.
The test system of series [8] is aromatic L-amino acid decarboxylase. The note with it: cited from earlier work; for NA isomer formed: in vivo.
The conditions of series [9]: U.S. Pat. No. 4,529,603; cited from earlier work.
Series [10] in a line: Effect of L-threo-DOPS on urinary volume of mice (Experimental Example 2). The format is in vivo. Conditions: FIG. 2. Here is the method:
(§1) The ordinate represents the urinary volume (ml/kg/3 hr) and the abscissa, the amount of dosage of L-threo-DOPS (mg/kg).
(§2) In FIG. 1 and FIG. 2, the mark * represents p<0.05 (compared with the control group).
Ten mice starved for 17 hours were arranged to form a group. Ten mg/kg, 30 mg/kg, and 100 mg/kg of L-threo-DOPS were suspended in a 0.5% aqueous solution of methyl cellulose, respectively, and orally administered together with […] of isotonic sodium chloride solution. To the control groups were dosed only 0.5% aqueous solution of methyl cellulose and isotonic sodium chloride solution.

Series [11] in a line: Effect of L-threo-DOPS on electrolytes in urine of rats (Experimental Example 1). Format: in vivo. Conditions: for amount of Cl^- in urine / amount of K^+ in urine / amount of Na^+ in urine: 3 hours, average of 5 groups±S.E. On the procedure:
(§3) Three rats starved for 17 hours were arranged to form a group. Ten mg/kg, 30 mg/kg, and 100 mg/kg of L-threo-DOPS were suspended in a 0.5% aqueous solution of methyl cellulose, respectively, and orally administered together with 25 ml/kg of isotonic sodium chloride solution. To the control groups were dosed only 0.5% aqueous solution of methyl cellulose and isotonic sodium chloride solution. The urinary volume was measured through 3 hours after the dosage. In addition, among electrolytes in the urine, amounts of sodium ion (Na^+) and potassium ion (K^+) were measured by a flame photometer, and an amount of chlorine ion (Cl^-) by the method of Zall et al. (Anal. Chem. 28, 1665).
In the table, values are represented in a unit of mEq/kg/3 hr and as the average of 5 groups±S.E.

The nature of series [12]: Effect of periphery decarboxylase inhibitor (DCI) on diuretic action of L-threo-DOPS (Experimental Example 3). The note with it: for effect on diuretic action of L-threo-DOPS when used together (in words): p.o. at the same time with L-threo-DOPS. Format: in vivo, rats.
Description: Investigation was made on the effect of L-threo-DOPS on diuretic action when DCI, benserazide or carbidopa was dosed by oral administration at the same time, as in the same manner as Experimental Example 1.
A further series has as its system harmaline induced tremor. Conditions: Japanese Patent Publication 125630/1977; cited from earlier work.
For series [13] the following is noted: rats; Araki et al. 1978; cited from earlier work.
Series [14] is described as follows: Amount of NA in the kidney and heart of rats after the dosage of L-threo-DOPS (Experimental Example 4). Format: in vivo. Here is the method:
To the rats were dosed 30 mg/kg of L-threo-DOPS by oral adminstration, and the amount of NA in the kidney and heart after 1 hour was measured.
The method for the measurement was nearly in accordance with the method of Suzuki, et al. (Europ. J. Clin. Pharmacol., 23, 463, 1982).

For series [15] the following is noted: rats; Araki et al. 1981; cited from earlier work.
Series [16] is described as follows: Effect of L-threo-DOPS on urinary volume of rats (Experimental Example 1). Format: in vivo. The note with it: rats, 10, 30, 100 mg/kg p.o., 3 hours, FIG. 1. On the procedure: as §1, §2, §3
Another series deals with renal blood vessel. Conditions: in vivo; cited from earlier work.
Where [17] appears, read: rats, 30 mg/kg p.o., after 1 hour, average of 5 rats±S.E.

With `N[C@H](C(=O)O)[C@H](O)c1ccc(O)c(O)c1` (relative stereo) [DL-threo-DOPS], the “effect on orthostatic hypotension” value in [1] is “beneficial effects”. Besides, the LD50 in series [2], in series [3] and in series [6] was no less than 10000 mg/kg in each case. For the same molecule, the “diuretic action (in words)” value in series [4] was “significant diuretic action”. Further, the “effect on freezing phenomena of Parkinson's disease” value in series [5] is “beneficial effects”.

As for `N[C@H](C(=O)O)[C@@H](O)c1ccc(O)c(O)c1` (relative stereo) [erythro-DOPS, reference compound], in [7], the “antihypertensive or antidepressive effect” value is “antihypertensive or antidepressive effect”.

As to `N[C@H](C(=O)O)[C@H](O)c1ccc(O)c(O)c1` (relative stereo) [threo-DOPS, threo-3-(3,4-dihydroxyphenyl)-serine], the “antihypertensive or antidepressive effect” value in series [7] is “antihypertensive or antidepressive effect”.

As to `N[C@H](C(=O)O)C(O)c1ccc(O)c(O)c1` (stereo partly drawn) [L-DOPS], the “conversion to noradrenaline in vivo” value in [8] (by aromatic L-amino acid decarboxylase) was “converted to noradrenaline”.

As for `N[C@H](C(=O)O)[C@@H](O)c1ccc(O)c(O)c1` [L-erythro-DOPS], the “effect on psychmotor excitement” value in series [9] is “suppressive effect”. In addition, in [8], the NA isomer formed entry is “unnatural type d-NA”.

Turning to `N[C@H](C(=O)O)[C@H](O)c1ccc(O)c(O)c1` [L-threo-DOPS], the “effect on orthostatic hypotension” value in series [1] is listed as “beneficial effects”. Further, the “urinary volume (in words)” value is “increases the urinary volume in accordance with the amount of dosage” in series [10] (mice, 10, 30, 100 mg/kg p.o.) and “Increase in the urinary volume was recognized in accordance with the amount of dosage” in series [16]. The “urinary volume, significance (in words)” value in series [10] (mice, group dosed 100 mg/kg p.o.) was “significant”. Besides, the 50% lethal dose (LD50) in [2], in series [3] and in [6] was no less than 10000 mg/kg throughout. In addition, the figures for the “amount of Cl^- in urine” value in [11] (10 mg/kg p.o.), in series [11] (30 mg/kg p.o.) and in [11] (100 mg/kg p.o.) were 1.89 ± 0.14 mEq/kg/3 hr, 2.97 ± 0.25 mEq/kg/3 hr and 3.24 ± 0.07 mEq/kg/3 hr, respectively. For the same molecule, the “amount of K^+ in urine” value worked out at 0.32 ± 0.03 mEq/kg/3 hr in series [11] (10 mg/kg p.o.), 0.37 ± 0.05 mEq/kg/3 hr in series [11] (30 mg/kg p.o.) and 0.45 ± 0.03 mEq/kg/3 hr in [11] (100 mg/kg p.o.). Besides, the “amount of Na^+ in urine” value in series [11] (10 mg/kg p.o.) is 1.58 ± 0.12 mEq/kg/3 hr; in [11] (30 mg/kg p.o.) it was 2.45 ± 0.32 mEq/kg/3 hr; in series [11] (100 mg/kg p.o.), 3.15 ± 0.07 mEq/kg/3 hr. Besides, the “amount of Na^+ in urine (in words)” value in series [11] (groups dosed 10 mg/kg or more p.o.) was “significantly increases”. Moreover, the “amount of Cl^- in urine (in words)” value in series [11] (only in groups dosed 30 mg/kg or more p.o.) is given as “significantly increased”. Further, the “amount of K^+ in urine (in words)” value in series [11] (only in the group dosed 100 mg/kg p.o.) was “significant increase”; in [11] (p.o., doses in general), “not so much influenced”. This molecule displayed a Urinary volume in series [12] (L-threo-DOPS 30 mg/kg p.o. alone, average of 5 groups±S.E.) of 51.9 ± 3.0 ml/kg/3 hr. Besides, the “effect on harmaline induced tremor” value in the series with harmaline induced tremor was “inhibitory effect”. Besides, the NA isomer formed entry in series [8] is listed as “natural type l-NA”. Moreover, the “course of diuretic action (in words)” value in series [4] (easy manner such as oral administration) was “uniformly and prolongably”. In addition, the “diuretic action (in words)” value in [4] is listed as “significant diuretic action”. Besides, the positive chronotropic effect result in series [13] is reported as “positive chronotropic effect”. The “effect on freezing phenomena of Parkinson's disease” value in series [5] was “beneficial effects”. Further, the “NA in the heart (in words)” value in [14] (30 mg/kg p.o.) was “no influence”. Besides, in series [14] (30 mg/kg p.o.), the “amount of NA in the kidney (in words)” value is on record as “markedly increases”. Besides, the “NA concentration in the kidney compared with those in other organs (in words)” value in series [14] (rat, in vivo) is “significantly increased”. In [14] (setting [17]), the “amount of NA in the heart” value came out at 1.00 ± 0.06 ng/g wet weight. Besides, the “amount of NA in the kidney” value in series [14] (setting [17]) is recorded as 1.80 ± 0.35 ng/g wet weight. In series [15], the pressor effect entry is listed as “pressor effect”.

Consider `NC(CO)C(=O)NNCc1ccc(O)c(O)c1O` (stereo not drawn) [benserazide], for which, in series [12], the “effect on diuretic action of L-threo-DOPS when used together (in words)” value is “significantly decreased”.

As for `C[C@@](Cc1ccc(O)c(O)c1)(NN)C(=O)O` [carbidopa], the “effect on diuretic action of L-threo-DOPS when used together (in words)” value in series [12] is on record as “significantly decreased”.

In the case of `NC[C@H](O)c1ccc(O)c(O)c1` [l-NA], in the series on renal blood vessel, the “action on the renal blood vessel” value was “contractive action” and the “effect on renal blood flow” value is reported as “decrease in the renal blood flow”.
